The values that follow come from PMC3072462 (Journal of medicinal chemistry, 2011).

Series [1] concerns the target T1, recombinant HIV-1 IN (3′P) (Human immunodeficiency virus type 1 group M subtype B, UniProt P04585). Put plainly: In vitro integrase catalytic gel assay, 3′ processing. Type of series: biochemical.
Series [2] concerns HIV-1NL4-3 strain K103N. The series is described as follows: Antiviral assay with NNRTI-resistant strain in MAGI R5 cells. Format: cell-based. To be noted: HIV-1NL4-3 K103N (NNRTI resistance).
Series [3] concerns HIV-1NL4-3 strain Y181C. The series is described as above. Format: cell-based. The conditions noted are these: HIV-1NL4-3 Y181C (NNRTI resistance).
Series [4] has as its target T2, recombinant HIV-1 IN (ST) (Human immunodeficiency virus type 1 group M subtype B, UniProt P04585). The series is described as follows: In vitro integrase catalytic gel assay, strand transfer. Format: biochemical.
Series [5] has as its system HIV-1IIIB. The series is described as follows: HIV cytoprotection. To be noted: for activity against HIV-1 (in words): 10 μM, CEM-SS cells; for TI (therapeutic index, CC50/EC50): HIV-1IIIB in CEM-SS cells.
The target of series [6] is T1, recombinant HIV-1 IN (3′P). To be noted: read-out: IN IC50 3′P, gel assay; cited from earlier work.
Series [7] concerns the target T2, recombinant HIV-1 IN (ST). The conditions noted are these: cited from earlier work.
Series [8] has as its system raltegravir-resistant HIV-1 strain 1556-1 (Y143C). To be noted: virus 1556-1, Y143C; NL4-3 based, MT-4 cells; cited from earlier work.
In series [9] the test system is HIV IN mutant Y143R. The conditions noted are these: values from two independent experiments; cited from earlier work.
Series [10] deals with HIV-1IIIB. To be noted: HIV-1IIIB in CEM-SS cells, cited from earlier work.
The test system of series [11] is CEM-SS cells. The conditions noted are these: single concentration 10 μM; cited from earlier work.
The test system of series [12] is HIV IN mutant Y143R. The conditions noted are these: values from two independent experiments.
Series [13] is described as follows: Compound cytotoxicity / cell viability in CEM-SS cells. Format: cell-based. To be noted: human.

Where “and” joins values, the source holds several entries; their conditions need not be identical. Equal values may be shown once. Read-outs that look alike come from different tables or passages of the source.

In the case of `CC(C)c1c(Cc2ccccc2)n(COCc2ccc(F)cc2)c(=O)n(C)c1=O` [Compound 10, 6-Benzyl-1-((4-fluorobenzyloxy)methyl)-5-isopropyl-3-methylpyrimidine-2,4(1H,3H)-dione], the IC50 in [1] was more than 111 µM.

As to `CC(C)c1c(Cc2ccccc2)n(COCc2ccc(F)cc2)c(=O)[nH]c1=O` [Compound 9, 6-Benzyl-1-((4-fluorobenzyloxy)methyl)-5-isopropylpyrimidine-2,4(1H,3H)-dione], the IC50 in series [1] was more than 111 µM.

As for `CC(C)c1c(Cc2ccccc2)n(COCc2ccccc2)c(=O)[nH]c1=O` [TNK-651], the fold-resistance in series [2] was found to be 22; in series [3], 72.

As for `CCc1c(Cc2ccccc2)c(=O)n(O)c(=O)n1COCc1ccccc1` [Compound 55, 5-Benzyl-1-(benzyloxymethyl)-6-ethyl-3-hydroxypyrimidine-2,4(1H,3H)-dione], the “fold increase of IC50 value on swapping C5 and C6 substituents” value in series [4] (ST, 55 vs 53) was 4 fold. The IC50 in series [1] was more than 111 µM.

As to `CC(C)c1c(Cc2ccccc2)n(COCCc2ccc(F)cc2)c(=O)n(O)c1=O` [Compound 28, 6-Benzyl-1-((4-fluorophenethoxy)methyl)-3-hydroxy-5-isopropylpyrimidine-2,4(1H,3H)-dione], the IC50 in series [1] was more than 111 µM.

As for `O=c1c2ccccc2n(Cc2ccccc2)c(=O)n1O` [Compound 75], in series [4], the IC50 was more than 111 µM and the “inhibitory activity against IN (in words)” value (“inhibitory activity” for short) is “completely inactive”. The IC50 in series [1] was more than 111 µM.

In the case of `CC(C)c1c(Cc2ccccc2)n(CCCCc2ccc(F)cc2)c(=O)n(O)c1=O` [Compound 44, 6-Benzyl-1-(4-(4-fluorophenyl)butyl)-3-hydroxy-5-isopropylpyrimidine-2,4(1H,3H)-dione], the 50% inhibitory concentration (IC50) in series [1] was more than 111 µM. Besides, in series [5], the “activity against HIV-1 (in words)” value is listed as “only marginal activity”.

As to `CC(C)c1c(Cc2ccccc2)n(COCc2ccccc2)c(=O)n(N)c1=O` [Compound 15, 3-Amino-6-benzyl-1-(benzyloxymethyl)-5-isopropylpyrimidine-2,4(1H,3H)-dione], the IC50 in series [6] is more than 111 µM. Further, the “inhibitory activity” value in series [7] is given as “completely devoid of inhibitory activity”.

`CC(C)c1c(Cc2ccccc2)n(COCc2ccc(F)cc2)c(=O)n(O)c1=O` [Compound 4, 6-Benzyl-1-((4-fluorobenzyloxy)methyl)-3-hydroxy-5-isopropylpyrimidine-2,4(1H,3H)-dione]: the “fold improvement in IN inhibition over the unsubstituted compound 11” value in series [4] (ST, 4 vs 11) worked out at 6 fold. For the same compound, the “Fold-resistance EC50(mutant)/EC50(WT)” value in [8] is reported as 5.9. Further, the “Fold-resistance IC50(mutant)/IC50(WT)” value in series [9] is 7 and 4. Besides, in series [10], the “TI (therapeutic index, CC50/EC50)” value is more than 833. In addition, in series [10] (read-out: EC50 (concentration inhibiting virus replication by 50%), dose response), the EC50 is 0.024 µM. The “CPE Reduction (%)” value in [10] (single concentration 10 μM) is 100%. In addition, the IC50 in series [6] was more than 111 µM. Moreover, in [11], the “Cell Viability (%)” value is listed as 100%.

Regarding `CCc1c(Cc2ccccc2)c(=O)n(O)c(=O)n1COCc1ccc(F)cc1` [Compound 56, 5-Benzyl-6-ethyl-1-((4-fluorobenzyloxy)methyl)-3-hydroxypyrimidine-2,4(1H,3H)-dione], in series [1], the IC50 was more than 111 µM.

Regarding `CC(C)c1c(Cc2ccc(F)cc2)n(Cc2ccc(F)cc2)c(=O)n(O)c1=O` [Compound 65, 1,6-Bis(4-fluorobenzyl)-3-hydroxy-5-isopropylpyrimidine-2,4(1H,3H)-dione], the IC50 in series [1] is more than 111 µM.

Consider `Cc1nnc(C(=O)NC(C)(C)c2nc(C(=O)NCc3ccc(F)cc3)c(O)c(=O)n2C)o1` [Compound 1, raltegravir, reference compound], for which, in series [12], the “Fold-resistance IC50(mutant)/IC50(WT)” value was determined as 28.

Turning to `CC(C)c1c(Cc2ccccc2)n(COCCCc2ccc(F)cc2)c(=O)n(O)c1=O` [Compound 29, 6-Benzyl-1-((3-(4-fluorophenyl)propoxy)methyl)-3-hydroxy-5-isopropylpyrimidine-2,4(1H,3H)-dione], the concentration for half-maximal inhibition (IC50) in [1] is more than 111 µM.

In turn, `CCc1c(Cc2ccccc2)c(=O)[nH]c(=O)n1COCc1ccccc1` [Compound 49, 5-Benzyl-1-(benzyloxymethyl)-6-ethylpyrimidine-2,4(1H,3H)-dione] came in with a viability at 6 days, 10 µM in series [13] of 100%.

With `Cc1cn(COCc2ccccc2)c(=O)n(O)c1=O` [Compound 54, 1-(Benzyloxymethyl)-3-hydroxy-5-methylpyrimidine-2,4(1H,3H)-dione], in series [1], the 50% inhibitory concentration (IC50) is more than 111 µM.

For the compound `CCc1c(Cc2ccccc2)n(Cc2ccccc2)c(=O)n(O)c1=O` [Compound 67, 1,6-Bibenzyl-5-ethyl-3-hydroxypyrimidine-2,4(1H,3H)-dione], in series [4], the “inhibitory activity” value is “complete loss of inhibition”. The IC50 in [1] was more than 111 µM.

Turning to `COn1c(=O)c(C(C)C)c(Cc2ccccc2)n(COCc2ccc(F)cc2)c1=O` [Compound 14, 6-Benzyl-1-((4-fluorobenzyloxy)methyl)-5-isopropyl-3-methoxypyrimidine-2,4(1H,3H)-dione], the IC50 in [1] is more than 111 µM.

Consider `CC(C)c1c(Cc2ccccc2)n(Cc2ccc(F)cc2)c(=O)n(O)c1=O` [Compound 32, 6-Benzyl-1-(4-fluorobenzyl)-3-hydroxy-5-isopropylpyrimidine-2,4(1H,3H)-dione], for which, in [1], the IC50 was more than 111 µM.

Consider `CC(C)c1c(Cc2ccccc2)n(COCc2ccc(F)cc2F)c(=O)n(O)c1=O` [Compound 12, 6-Benzyl-1-((2,4-difluorobenzyloxy)methyl)-3-hydroxy-5-isopropylpyrimidine-2,4(1H,3H)-dione], for which the IC50 in series [1] is more than 111 µM. In series [13], this compound had a viability at 6 days, 10 µM of 100%. Besides, the “TI (therapeutic index, CC50/EC50)” value in series [5] is more than 47.

`CCc1c(Cc2ccccc2)n(COCc2ccccc2)c(=O)n(O)c1=O` [Compound 53, 6-Benzyl-1-(benzyloxymethyl)-5-ethyl-3-hydroxypyrimidine-2,4(1H,3H)-dione]: the IC50 in series [1] was more than 111 µM.

As for `Cc1cn(Cc2ccccc2)c(=O)n(O)c1=O` [Compound 69, 1-Benzyl-3-hydroxy-5-methylpyrimidine-2,4(1H,3H)-dione], the half-maximal inhibitory concentration (IC50) in series [1] was more than 111 µM.

As for `CC(C)c1c(Cc2ccc(F)cc2)n(Cc2ccccc2)c(=O)n(O)c1=O` [Compound 64, 1-Benzyl-6-(4-fluorobenzyl)-3-hydroxy-5-isopropylpyrimidine-2,4(1H,3H)-dione], in series [1], the IC50 was more than 111 µM.

For the compound `CC(C)c1c(Cc2ccc(F)cc2)n(COCc2ccccc2)c(=O)n(O)c1=O` [Compound 51, 1-(Benzyloxymethyl)-6-(4-fluorobenzyl)-3-hydroxy-5-isopropylpyrimidine-2,4(1H,3H)-dione], the IC50 in series [1] is more than 111 µM. In series [13], this compound came in with a viability at 6 days, 10 µM of 100%. The “TI (therapeutic index, CC50/EC50)” value in series [5] is on record as more than 18.

Consider `CC(C)c1c(Cc2ccccc2)n(CCc2ccc(F)cc2)c(=O)n(O)c1=O` [Compound 42, 6-Benzyl-1-(4-fluorophenethyl)-3-hydroxy-5-isopropylpyrimidine-2,4(1H,3H)-dione], for which the IC50 in series [1] was more than 111 µM.

On to `CCc1c(Cc2ccccc2)n(Cc2ccc(F)cc2)c(=O)n(O)c1=O` [Compound 68, 6-Benzyl-5-ethyl-1-(4-fluorobenzyl)-3-hydroxypyrimidine-2,4(1H,3H)-dione], for which, in series [1], the IC50 was more than 111 µM.

On to `CC(C)c1c(Cc2ccccc2)n(Cc2ccccc2)c(=O)n(O)c1=O` [Compound 66, 1,6-Bibenzyl-3-hydroxy-5-isopropylpyrimidine-2,4(1H,3H)-dione], for which the IC50 in series [1] is more than 111 µM.

For the compound `CC(C)c1c(Cc2ccccc2)n(CCCc2ccc(F)cc2)c(=O)n(O)c1=O` [Compound 43, 6-Benzyl-1-(3-(4-fluorophenyl)propyl)-3-hydroxy-5-isopropylpyrimidine-2,4(1H,3H)-dione], in [1], the IC50 was more than 111 µM. Further, in [5], the “activity against HIV-1 (in words)” value was “only marginal activity”.

As for `Cc1cn(Cc2ccc(F)cc2)c(=O)n(O)c1=O` [Compound 70, 1-(4-Fluorobenzyl)-3-hydroxy-5-methylpyrimidine-2,4(1H,3H)-dione], the IC50 in series [1] was more than 111 µM.

As to `CC(C)c1c(Cc2ccccc2)n(COCCCCc2ccc(F)cc2)c(=O)n(O)c1=O` [Compound 30, 6-Benzyl-1-((4-(4-fluorophenyl)butoxy)methyl)-3-hydroxy-5-isopropylpyrimidine-2,4(1H,3H)-dione], the IC50 in series [1] was more than 111 µM.

On to `O=c1c2ccccc2n(Cc2ccc(F)cc2)c(=O)n1O` [Compound 76], for which the 50% inhibitory concentration (IC50) in [4] and in [1] was more than 111 µM throughout. The “inhibitory activity” value in series [4] was “completely inactive”.

With `CC(C)c1c(Cc2ccc(F)cc2)n(COCc2ccc(F)cc2)c(=O)n(O)c1=O` [Compound 52, 6-(4-Fluorobenzyl)-1-((4-fluorobenzyloxy)methyl)-3-hydroxy-5-isopropylpyrimidine-2,4(1H,3H)-dione], the IC50 in series [1] is more than 111 µM.

Regarding `CC(C)c1c(Cc2ccccc2)n(COCc2ccccc2)c(=O)n(O)c1=O` [Compound 11, 6-Benzyl-1-(benzyloxymethyl)-3-hydroxy-5-isopropylpyrimidine-2,4(1H,3H)-dione], the IC50 in series [6] is more than 111 µM.
